# Patent US6635242B2, “Broad spectrum microbicidal and spermicidal compositions, devices, and methods” (The Pennsylvania State University, priority 1998, dated 2003)
# Key:
# HSV-2 (strain 333) = experiment: HSV-2 inactivation assay (plaques on CV-1 monolayers); type: cell-based, herpes simplex virus; details: 37° C. 10 min, virus then diluted 100 fold
# Protocol: HSV-2 (strain 333) virus stocks were propagated by low multiplicity infection of African Green monkey kidney (CV-1) cells and subsequent preparation of cell-free supernatants from frozen and thawed preparations of lytically infected cultures. Virus titers were determined by assay in CV-1 cell monolayers. Virus stocks were maintained in CV-1 cell culture medium which was Dulbecco's medium supplemented with antibiotics and 10% fetal calf serum.
# For inactivation of HSV-2, 39 μl of virus was mixed with 1 μl of a 40×concentrated solution of detergent and then incubated at 37° C. for 10 min. After inactivation, the 40 μl of virus sample was diluted to 4 ml (1:100) using cell culture medium, and 1 ml of the diluted virus was adsorbed onto CV-1 monolayers for 1 hr at 37° C. Following adsorption, monolayers were refed and incubated at 37° C., 5% CO2. Between 20 and 24 hr post infection, monolayers were fixed, stained with crystal violet and plaques counted using a dissecting microscope. The numbers in Table 1 each represent an average of 2 plates.
# CRPV = type: in vivo, cottontail rabbit papillomavirus; details: 0.05% SDS
# [1] = system: split thickness grafts of neonatal foreskin; experiment: SDS exposure and viability of human foreskin xenografts; type: in vivo; details: 0.05% SDS, no virus; immediately and days 1, 5, 11 and 20
# Protocol: A second set of control grafts was exposed only to identical concentrations of SDS and no virus. These grafts were harvested on days 1, 5, 11 and 20 following transplantation in order to follow the viability and growth of the grafts after SDS exposure.
# Because of concern about the potential for SDS to kill human epithelium, control experiments were performed in which split thickness grafts of neonatal foreskin were exposed to 0.05% SDS alone and then subsequently grafted. All conditions in this experiment were identical to those used in the HPV 11 infections with treated virus, except that virus was not present. SDS-exposed grafts (2 animals at each time) were harvested, fixed and sectioned immediately after exposure, and on days 1, 5, 11 and 20 after treatment. […] The original split thickness grafts were approximately 1 mm×1 mm×1 mm in size; in addition they were punctured many times with the tip of a needle in order to allow entrance of the HPV 11 and/or the SDS into the epithelial layers. Although it is possible that some epithelial cells may have been damaged or killed during SDS exposure, damage was minimal and epithelial growth in the grafts was normal.
# [2] = system: HIV-1-infected SupT1 cells; experiment: Cell-associated HIV-1 infectivity (FIG. 6); type: cell-based, human immunodeficiency virus; details: 10 min at 37° C., co-culture with HCLB cells, FIG. 6(a)
# Protocol: (A) SupT1 T lymphocytes (8×10^4)infected 5 days prior with HIV-1 strain IIIB were pelleted and resuspended in new media to remove cell-free virus. After exposure to selected concentrations of each microbicide for 10 min at 37° C., the cells were diluted 1:10 and co-cultured with HCLB cells for 2 h. Following one wash with PBS to remove the infected lymphocytes, the indicator cells were cultured and assayed. Infectivity following exposure is expressed as a percentage relative to the number of β-gal-positive cells in duplicate wells infected with HIV-1 infected SupT1 cells incubated in the absence of a microbicidal compound. Results shown in FIG. 6(a) are the average cell counts for a total of four wells per concentration in two independent experiments. (B) SupT1 T lymphocytes (8×10^4) were incubated with selected concentrations of each microbicide for 10 min at 37° C., and then diluted 1:10 with new media. Following a 2 h incubation period, the cells were assessed for viability. Cell survival after treatment is expressed as the fraction of viable cells relative to the number of mock-exposed cells. Results shown in FIG. 6(b) are the average of two experiments in which triplicate wells for each concentration were assayed.
# HSV-2 = experiment: Protection of mice from vaginal infection with live HSV-2; type: in vivo, herpes simplex virus; details: Swiss-Webster mice
# Protocol: The following data represent an in vivo experiment to test both the toxicity and the efficacy of SDS in the protection of mice from vaginal infection with live herpes simplex virus (HSV-2).
# The experiment used outbred, female, Swiss-Webster mice. Mice were anesthetized and then SDS or control solutions (25μl ) was instilled into the vagina using a yellow pipette tip. The SDS was not formulated into a vaginal cream or foam but merely dissolved into phosphate buffered saline. These solutions have low viscosity. Fluids were instilled into groups of 10 mice at one time. Following administration of SDS or control solutions to the group of 10, then an additional 25 μof virus or control fluid was instilled. Mice were allowed to recover from the anesthesia and then the mice were checked daily for symptoms, beginning on day three and until 12 days after inoculation. Vaginal swabs were also performed on the mice on a daily basis, beginning on day three, in order to determine shedding of virus. FIGS. 3A-3G show the total symptoms per group on days 3 through 12 for each of the following symptoms: swelling, vaginal exudate, redness, death, leg paralysis, perianal hair loss and any symptom.
# Bovine sperm = Bovine sperm motility following detergent addition; type: cell-based; parameters: key to Bovine Sperm Motility Following Detergent Addition: +++: Vigorous swimming; ++/−: Many swimmers/some dead; +/−: Occasional swimmer/most dead; −: All dead
# From the text: The following data represent an in vitro experiment to test the efficacy of SDS and other detergents as spermicidal agents. Frozen samples of bull semen were obtained, thawed and placed in a test tube. Aliquots were taken out and put in a separate test tube where they were mixed with detergent (SDS, C31G, N-9 or a mixture of SDS and N-9) to a final percent as listed in Tables 8 and 9 below. After mixing, the samples were immediately placed on a microscope slide and visually examined for sperm movement. The experiment was conducted one sample at a time so that the visual examination was conducted immediately after addition of detergent to the sample. As a result, indications in the table of complete inactivation indicate virtually instantaneous inactivation of the sperm. […] Occasional swimmers means very few, on the order of approximately 1% of the population of sperm present in the sample, indicating approximately 99% of the sperm were inactivated by the detergent.
compound,measurement,setting,value
"CCCCCCCCCCCCOS(=O)(=O)[O-].[Na+] [SDS, Sodium dodecyl sulfate]",Plaques/Plate (5 experiments),HSV-2 (strain 333); 1 × 10^−1 % SDS during treatment,0/0/0/0/0
same,Plaques/Plate (5 experiments),HSV-2 (strain 333); 1.25 × 10^−2 % SDS during treatment,0/0/0/0/0
same,Plaques/Plate (5 experiments),HSV-2 (strain 333); 2.5 × 10^−2 % SDS during treatment,0/0/0/0/0
same,Plaques/Plate (5 experiments),HSV-2 (strain 333); 2.5 × 10^−3 % SDS during treatment,28/54/322/145/104
same,Plaques/Plate (5 experiments),HSV-2 (strain 333); 5 × 10^−2 % SDS during treatment,0/0/0/0/0
same,development of papillomas at the six sites that received SDS treated preparations (FIG. 1b),"CRPV; 10^−1 dilution of virus stock, 10 min, 37° C., rabbits",delayed in the development of papillomas
same,"inactivation of CRPV (GMD of lesions, FIG. 1a)","CRPV; 10^−1 dilution of virus stock, 10 min, 37° C., rabbits, days 18-50",substantially inactivated
same,sites inoculated with treated virus in which papillomas failed to develop,"CRPV; 10^−2 dilution of CRPV stock, 37° C. 10 min, five rabbits, 3-6 weeks",8 of 10
same,viability of grafts exposed to SDS alone (histology),[1],fully viable epithelium on all days and no apparent necrosis
same,cell-associated infectivity of HIV-1-infected SupT1 cells,[2],can reduce the cell-associated infectivity
same,"protection from HSV-2 inoculation of the vagina, dose response",HSV-2; 4% SDS,most protection
same,protection from HSV-2 inoculation of the vagina (symptoms days 3-12),"HSV-2; all concentrations of SDS (0.5%, 1%, 2%, 4%) in PBS, 25 μl intravaginal",significant protection
same,Bovine Sperm Motility Following Detergent Addition,"Bovine sperm; Table 8, 0.0125% detergent",+/−
same,timing of sperm inactivation,"Bovine sperm; Table 8, 0.0125% detergent, delayed = approximately 10 minutes",(delayed)
same,Bovine Sperm Motility Following Detergent Addition,"Bovine sperm; Table 8, 0.025% detergent",−
same,Bovine Sperm Motility Following Detergent Addition,"Bovine sperm; Table 8, 0.5% detergent",−
same,Bovine Sperm Motility Following Detergent Addition,"Bovine sperm; Table 8, 1% detergent",−
same,Bovine Sperm Motility Following Detergent Addition,"Bovine sperm; Table 8, 2% detergent",−
same,Bovine Sperm Motility Following Detergent Addition,"Bovine sperm; Table 9, 0.125% detergent",++/−
same,Bovine Sperm Motility Following Detergent Addition,"Bovine sperm; Table 9, 0.25% detergent",++/−
same,Bovine Sperm Motility Following Detergent Addition,"Bovine sperm; Table 9, 0.5% detergent",++/−
same,Bovine Sperm Motility Following Detergent Addition,"Bovine sperm; Table 9, 1% detergent",++/−
same,Bovine Sperm Motility Following Detergent Addition,"Bovine sperm; Table 9, 2% detergent",+/−
